# According to patent US10988524B2, “Modified relaxin B chain peptides and their therapeutic use” (priority 2018, dated 2021):
# Non-standard residues stand in square brackets, D forms with d. Residues, ends and D or L forms follow the SMILES beside them. Phe(4-F) = N[C@@H](Cc1ccc(F)cc1)C(=O)O; Nle = CCCC[C@H](N)C(=O)O; Aib = CC(C)(N)C(=O)O
# Tests used:
# [1] = Solubility testing of peptides in buffer; assay type: physicochemical; settings: Phosphate buffer 50 mM pH 7.4; target solubility 2.0 mg/ml; ~19 h; read-out: Solubility phosphate buffer pH 7.4
# RXFP1 = target: T1, RXFP1 (Homo sapiens, UniProt Q9HBX9); experiment: OVCAR5 cAMP assay (RXFP1 agonist activity, HTRF); settings: for Emax: OVCAR-5, read-out: cAMP assay in OVCAR 5 cells Emax, maximal intracellular cAMP relative to H2-relaxin in the same test occasion; for EC50: cAMP assay in OVCAR 5 cells EC50 (nM), OVCAR5 cells expressing endogenous RXFP1, cAMP by HTRF, 30 min at 37° C., 1 mM IBMX
# T1 sequence (Q9HBX9 1-757): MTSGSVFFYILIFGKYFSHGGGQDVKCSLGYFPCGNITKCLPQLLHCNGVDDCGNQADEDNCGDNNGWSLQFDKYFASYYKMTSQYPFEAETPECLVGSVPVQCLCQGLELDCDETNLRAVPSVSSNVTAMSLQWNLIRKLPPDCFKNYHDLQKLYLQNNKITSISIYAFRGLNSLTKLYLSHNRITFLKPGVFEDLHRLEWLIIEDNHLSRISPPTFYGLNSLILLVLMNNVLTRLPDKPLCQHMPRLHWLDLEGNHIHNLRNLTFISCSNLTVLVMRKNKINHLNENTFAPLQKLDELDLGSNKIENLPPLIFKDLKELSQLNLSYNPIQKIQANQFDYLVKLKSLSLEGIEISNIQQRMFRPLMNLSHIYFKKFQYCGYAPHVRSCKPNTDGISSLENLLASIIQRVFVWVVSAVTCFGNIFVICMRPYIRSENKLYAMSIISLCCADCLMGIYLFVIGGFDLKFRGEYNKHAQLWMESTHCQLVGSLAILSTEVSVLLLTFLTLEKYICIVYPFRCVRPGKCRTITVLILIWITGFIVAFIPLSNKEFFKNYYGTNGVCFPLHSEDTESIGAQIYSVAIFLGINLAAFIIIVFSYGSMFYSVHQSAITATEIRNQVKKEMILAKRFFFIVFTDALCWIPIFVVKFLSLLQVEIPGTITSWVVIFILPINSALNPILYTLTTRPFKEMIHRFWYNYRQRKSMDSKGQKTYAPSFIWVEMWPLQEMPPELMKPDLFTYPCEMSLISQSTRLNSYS
# Stability in rat plasma = assay type: in vitro ADME; settings: 37° C.
# Procedure: (§1) Prior to the testing of stability in plasma of a peptide batch, its purity (HPLC-UV) was determined.
# (§2) Rat and Human plasma: anti-coagulant sodium or lithium heparin.
# (§3) 100 μM solution of study compound in 50 mM Phosphate buffer pH 7.4.
# (§4) 950 μL plasma is pre-incubated for 5 min at 37° C. 50 μL of compound stock solution is added. Final compound concentration=5 μM. Vortex and transfer 1504, plasma into an Eppendorf for each time point. The time points 0-1 and −4 h are carried out in duplicate for each species.
# (§5) After incubation extract 1504, plasma with 6004, Acetonitrile containing with 1% TFA. Vortex and centrifuge 10 min at 14600 rpm. Dry 2004, supernatant under N2. Reconstitute sample in 200 μL of H2O/CH3CN 98/2+0.1% FA+50 ng/ml Labetalol and analyze using the analytical system used in solubility and stability studies.
# (§6) For determination of the amount of the remaining peptide, the peak areas of the target compound at t0 and each time point […] were compared, resulting in “% remaining peptide”, following the equation
# (§7) % remaining peptide=[(peak area peptide time)×100]/peak area peptide t0. The stability is expressed as “% remaining peptide”.
# [2] = Stability in human plasma; assay type: in vitro ADME; settings: 37° C.
# Procedure: as §1, §2, §3, §4, §5, §6, §7
SMILES,solubility [1] [µg/mL],Emax (RXFP1) [%],other results
CC[C@H](C)[C@H](NC(=O)[C@H](CCC(N)=O)NC(=O)[C@H](C)NC(=O)[C@H](CCCNC(=N)N)NC(=O)[C@@H](NC(=O)[C@H](CCCCN)NC(=O)[C@H](CCC(=O)O)NC(=O)[C@H](CCCNC(=N)N)NC(=O)CNC(=O)[C@H](CCC(=O)O)NC(=O)[C@H](CC(C)C)NC(C)=O)C(C)C)C(=O)NC(C)(C)C(=O)NC(C)(C)C(=O)N[C@@H](CCC(=O)O)C(=O)NCC(=O)N[C@@H](CCC(N)=O)C(=O)N[C@@H](CO)C(=O)N[C@H](C(=O)N[C@@H](Cc1c[nH]c2ccccc12)C(=O)N[C@@H](CO)C(=O)NC(C)(C)C(=O)N[C@@H](CCCNC(=N)N)C(=O)N[C@@H](CCCCN)C(=O)N[C@@H](CCCCN)C(N)=O)[C@@H](C)O [compound 54] (Ac-LEGREKVRAQI[Aib][Aib]EGQSTWS[Aib]RKK-NH2),≥ 2400,–,cAMP assay in OVCAR 5 cells Emax (RXFP1; maximal intracellular cAMP relative to H2-relaxin in the same test occasion): 96%
CCCC[C@H](NC(=O)CNC(=O)[C@H](CCC(=O)O)NC(=O)C(C)(C)NC(=O)C(C)(C)NC(=O)[C@@H](NC(=O)[C@H](CCC(N)=O)NC(=O)[C@H](CCCNC(=N)N)NC(=O)[C@H](CCCNC(=N)N)NC(=O)[C@@H](NC(=O)[C@H](CCCCN)NC(=O)[C@H](CCC(=O)O)NC(=O)[C@H](CCCNC(=N)N)NC(=O)CNC(=O)[C@H](CCC(=O)O)NC(=O)[C@H](CC(C)C)NC(C)=O)C(C)C)[C@@H](C)CC)C(=O)N[C@@H](CO)C(=O)N[C@H](C(=O)N[C@@H](Cc1c[nH]c2ccccc12)C(=O)N[C@@H](CO)C(=O)NC(C)(C)C(=O)N[C@@H](CCCNC(=N)N)C(=O)N[C@@H](CCCCN)C(=O)N[C@@H](CCCCN)C(N)=O)[C@@H](C)O [compound 49] (Ac-LEGREKVRRQI[Aib][Aib]EG[Nle]STWS[Aib]RKK-NH2),≥ 2500,95,–
CC[C@H](C)[C@H](NC(=O)[C@H](CCC(N)=O)NC(=O)[C@H](C)NC(=O)[C@H](CCCNC(=N)N)NC(=O)[C@@H](NC(=O)[C@H](CCCCN)NC(=O)[C@H](CCC(=O)O)NC(=O)[C@H](CCCNC(=N)N)NC(=O)CNC(=O)[C@H](CCC(=O)O)NC(=O)[C@H](CC(C)C)NC(C)=O)C(C)C)C(=O)NC(C)(C)C(=O)N[C@H](C(=O)N[C@@H](CCC(=O)O)C(=O)NCC(=O)N[C@@H](CCSC)C(=O)N[C@@H](CO)C(=O)N[C@@H](CCCCN)C(=O)N[C@@H](Cc1c[nH]c2ccccc12)C(=O)N[C@@H](CO)C(=O)N[C@@H](CCCCN)C(=O)N[C@@H](CCCNC(=N)N)C(=O)N[C@@H](CCCCN)C(=O)N[C@@H](CCCCN)C(N)=O)[C@@H](C)CC [compound 1] (Ac-LEGREKVRAQI[Aib]IEGMSKWSKRKK-NH2),–,91,"Rat plasma stability % remaining, T = 0 (Stability in rat plasma; 5 μM, T = 0): 100%; remaining at 1 h, 5 μM (Stability in rat plasma; rat plasma (sodium or lithium heparin), 1 h): 72%; remaining at 4 h, 5 μM (Stability in rat plasma; rat plasma (sodium or lithium heparin), 4 h): 17%; Human Plasma stability % remaining, T = 0 ([2]; 5 μM, T = 0): 100%; remaining at 1 h, 5 μM ([2]; human plasma (sodium or lithium heparin), 1 h): 71%; remaining at 4 h, 5 μM ([2]; human plasma (sodium or lithium heparin), 4 h): 55%"
CCCC[C@H](NC(=O)CNC(=O)[C@H](CCC(=O)O)NC(=O)C(C)(C)NC(=O)C(C)(C)NC(=O)[C@@H](NC(=O)[C@H](CCC(N)=O)NC(=O)[C@H](C)NC(=O)[C@H](CCCNC(=N)N)NC(=O)[C@@H](NC(=O)[C@H](CCCCN)NC(=O)[C@H](CCC(=O)O)NC(=O)[C@H](CCCNC(=N)N)NC(=O)CNC(=O)[C@H](CCC(=O)O)NC(=O)[C@H](CC(C)C)NC(C)=O)C(C)C)[C@@H](C)CC)C(=O)N[C@@H](CO)C(=O)N[C@@H](CCCNC(=N)N)C(=O)N[C@@H](Cc1c[nH]c2ccccc12)C(=O)N[C@@H](CO)C(=O)NC(C)(C)C(=O)N[C@@H](CCCNC(=N)N)C(=O)N[C@@H](CCCNC(=N)N)C(=O)N[C@@H](CCCNC(=N)N)C(N)=O [compound 55] (Ac-LEGREKVRAQI[Aib][Aib]EG[Nle]SRWS[Aib]RRR-NH2),≥ 2500,88,EC50 (RXFP1): ≤ 5 nM
CCCC[C@H](NC(=O)CNC(=O)[C@H](CCC(=O)O)NC(=O)C(C)(C)NC(=O)C(C)(C)NC(=O)[C@@H](NC(=O)[C@H](CCC(N)=O)NC(=O)[C@H](C)NC(=O)[C@H](CCCNC(=N)N)NC(=O)[C@@H](NC(=O)[C@H](CCCCN)NC(=O)[C@H](CCC(=O)O)NC(=O)[C@H](CCCNC(=N)N)NC(=O)CNC(=O)[C@H](CCC(=O)O)NC(=O)[C@H](CC(C)C)NC(C)=O)C(C)C)[C@@H](C)CC)C(=O)N[C@@H](CO)C(=O)N[C@H](C(=O)N[C@@H](Cc1ccc(O)cc1)C(=O)N[C@@H](CO)C(=O)NC(C)(C)C(=O)N[C@@H](CCCNC(=N)N)C(=O)N[C@@H](CCCCN)C(=O)N[C@@H](CCCCN)C(N)=O)[C@@H](C)O [compound 53] (Ac-LEGREKVRAQI[Aib][Aib]EG[Nle]STYS[Aib]RKK-NH2),≥ 2100,75,–
CCCC[C@H](NC(=O)CNC(=O)[C@H](CCC(=O)O)NC(=O)C(C)(C)NC(=O)C(C)(C)NC(=O)[C@@H](NC(=O)[C@H](CCC(N)=O)NC(=O)[C@H](C)NC(=O)[C@H](CCCNC(=N)N)NC(=O)[C@@H](NC(=O)[C@H](CCCCN)NC(=O)[C@H](CCC(=O)O)NC(=O)[C@H](CCCNC(=N)N)NC(=O)CNC(=O)[C@H](CCC(=O)O)NC(=O)[C@H](CC(C)C)NC(C)=O)C(C)C)[C@@H](C)CC)C(=O)N[C@@H](CO)C(=O)N[C@H](C(=O)N[C@@H](Cc1c[nH]c2ccccc12)C(=O)N[C@@H](CO)C(=O)NC(C)(C)C(=O)N[C@@H](CCCNC(=N)N)C(=O)N[C@@H](CCCNC(=N)N)C(=O)N[C@@H](CCCNC(=N)N)C(N)=O)[C@@H](C)O [compound 50] (Ac-LEGREKVRAQI[Aib][Aib]EG[Nle]STWS[Aib]RRR-NH2),≥ 2300,90,EC50 (RXFP1): ≤ 5 nM
CC[C@H](C)[C@H](NC(=O)[C@H](CCC(N)=O)NC(=O)[C@H](C)NC(=O)[C@H](CCCNC(=N)N)NC(=O)[C@@H](NC(=O)[C@H](CCCCN)NC(=O)[C@H](CCC(=O)O)NC(=O)[C@H](CCCNC(=N)N)NC(=O)CNC(=O)[C@H](CCC(=O)O)NC(=O)[C@H](CC(C)C)NC(C)=O)C(C)C)C(=O)NC(C)(C)C(=O)NC(C)(C)C(=O)N[C@@H](CCC(=O)O)C(=O)NCC(=O)N[C@@H](CCC(N)=O)C(=O)N[C@@H](CO)C(=O)N[C@H](C(=O)N[C@@H](Cc1ccc(F)cc1)C(=O)N[C@@H](CO)C(=O)NC(C)(C)C(=O)N[C@@H](CCCNC(=N)N)C(=O)N[C@@H](CCCCN)C(=O)N[C@@H](CCCCN)C(N)=O)[C@@H](C)O [compound 59] (Ac-LEGREKVRAQI[Aib][Aib]EGQST[Phe(4-F)]S[Aib]RKK-NH2),≥ 2400,86,–
CCCC[C@H](NC(=O)CNC(=O)[C@H](CCC(=O)O)NC(=O)C(C)(C)NC(=O)C(C)(C)NC(=O)[C@@H](NC(=O)[C@H](CCC(N)=O)NC(=O)[C@H](C)NC(=O)[C@H](CCCNC(=N)N)NC(=O)[C@@H](NC(=O)[C@H](CCCCN)NC(=O)[C@H](CCC(=O)O)NC(=O)[C@H](CCCNC(=N)N)NC(=O)CNC(=O)[C@H](CCC(=O)O)NC(=O)[C@H](CC(C)C)NC(C)=O)C(C)C)[C@@H](C)CC)C(=O)N[C@@H](CO)C(=O)N[C@H](C(=O)N[C@@H](Cc1ccccc1)C(=O)N[C@@H](CO)C(=O)NC(C)(C)C(=O)N[C@@H](CCCNC(=N)N)C(=O)N[C@@H](CCCCN)C(=O)N[C@@H](CCCCN)C(N)=O)[C@@H](C)O [compound 51] (Ac-LEGREKVRAQI[Aib][Aib]EG[Nle]STFS[Aib]RKK-NH2),≥ 2400,98,–
